Columns and labels:
Hippocampal neurons = assay: TUNEL assay for the detection of cellular apoptosis induced by β-amyloid peptide in hippocampal neurons; format: cell-based, mouse
Procedure: In a second in vitro assay, the apoptosis in nerve cells was measured by means of the TUNEL technique described in R. Sgonc et al., Trends Genetics, 1994, 10, 41-42. Apoptosis is the function that controls the death of a biological unit in a programmed manner.
Hippocampal neurons (obtained as described in Example 1) were cultured in 24 well plates (Nunc) at a density of 100,000 cells/well.
After 7 days under culture, β-amyloid peptide 1-40 (Aβ1-40) (Amyloid βProtein (1-40) trifluoroacetate salt, Bachem) (20 μM) was added and the cells were incubated for 72 h.
In order to study the inhibitory effect of the compound of formula (I), the cells were pre-incubated for 15 minutes with said compound at a concentration of 30 μM prior to the addition of the β-amyloid peptide, Aβ1-40.
After 72 h, the cells were fixed and the apoptotic neurons were detected by means of the TUNEL technique (Sgonc, R. et al. (1994) Trends Genetics 10, 41-42) with the in situ “cell death detection” kit, POD (Roche). In said kit, fluorescein-dUTP was used to label the DNA chain cleavage, which makes it possible to directly visualise the staining of the nuclei of the apoptotic neurons in the fluorescence microscope.
Parallel to this, the neuronal nuclei were stained with a specific monoclonal antibody (mouse anti-neuronal nuclei (NeuN) monoclonal antibody, 0.5 μg/ml, Chemicon) and a secondary anti-mouse Cy3 antibody (3.75 μg/ml, Jackson Immunoresearch Laboratories).
The quantification was performed by counting the positive nuclei following the TUNEL staining in 3 random fields and expressed as the % of dead neurons with respect to the total number of neurons in each field. Each inhibitor was assayed in triplicate in 4 independent experiments.
As a negative control, cells cultured for the same period of time, without treatment with the β-amyloid peptide (measurement of baseline spontaneous apoptosis), were used. As a positive control of 100% apoptosis, treatment with DNAse (20 U/ml) was used, following the procedure indicated in the commercial kit.
The value of the positive control (treatment with DNAse) was considered to be 100 and the rest of the measurements were adjusted in relation to this value.

protein kinase Erk 1/2 = assay: ELISA assay for the detection of the tPA-induced activation of Erk 1/2 in primary hippocampal neurons; format: cell-based, mouse; settings: for normalised Erk 1/2 values, Mean value (arbitrary units): phospho-Erk 1/2 vs total Erk 1/2, 15 minutes pre-incubation with inhibitor, then tPA 20 μg/ml for 1 hour, tPA alone = 1, negative control 0.61
Text: The capacity to inhibit the activation of the protein kinase Erk 1/2 presented by the Compound of formula (I) has been determined by means of the ELISA (Enzyme-Linked Immunoadsorbent Assay) technique, as described in the Examples section.
In the ELISA assays, neurons from primary cultures of hippocampi isolated from mouse embryos (day 16.5 of gestation) were used, following the protocol described by Goslin and Banker (Goslin K and Banker G (1991) Culturing Nerve Cells, MIT Press, Cambridge, Mass.). This culture was used because the hippocampus is the main region affected in Alzheimer's disease and they are non-transformed cells.
10,000 cells/well were seeded in 96 well plates (Nunc) pre-treated with poly-L-Lys (SIGMA) and left under culture for 7 days.
The treatment with tPA was performed by adding it at 20 μg/ml (without changing the medium), for 1 hour. The treatment with the inhibitor, the compound of formula (I), was performed by means of a 15 minutes pre-incubation prior to the addition of tPA, as described above.
Following the treatments, the cells were fixed with methanol at a temperature of −20° C. for 5 min, and an ELISA assay was performed in order to detect the activation of Erk 1/2.
The wells were washed three times with TBST (Tris-buffered saline, 0.1% Triton® X-100) and blocked with 5% horse serum in TBST for 1 h at 37° C. They were once again washed with TBST, […] of the corresponding primary antibody (anti-phospho-Erk 1/2 Cell Signalling, catalogue number 9101, 1/500 or total Erk 1/2, Upstate catalogue number 06-182 1/1000 in 3% bovine serum albumin in TBST) were added and it was incubated overnight at 4° C.
After 4 washings with TBST, 0.45 μg/ml of the secondary alkaline-phospatase-coupled anti-rabbit antibody (DAKO, 1/800 in 3% bovine serum albumin in TBST) were added and it was kept for 1 h at 37° C.
4 washings with TBST were performed and it was developed using 4-methylumbelliferyl phosphate as the substrate (1 mg/ml in 0.2 M triethanolamine at pH 8.5) for 30 min at room temperature in the dark.
The results were quantified by means of fluorescence reading using the Cytofluor 235 fluorometer with an excitation filter of 360/40 and an emission filter of 460/40.
All the treatments were performed in sextuplicate in each experiment: 3 points for phosphorylated Erk 1/2 and 3 points for total Erk 1/2. At least 4 independent experiments were performed.
The following were used as controls: • 1) cells without treatment (negative control), • 2) cells treated with tPA and without an inhibitor (positive control), and • 3) cells incubated only with the secondary antibody and the substrate (negative control in the ELISA technique). […]

[1] = 15 minutes pre-incubation with inhibitor (compound of formula (I) 30 μM), then Aβ1-40 20 μM for 72 h, DNAse positive control = 100, negative control 0.4

Molecule	apoptosis of nerve cells, Mean value (%) of dead neurons (Hippocampal neurons; [1]) [%]	normalised Erk 1/2 values, Mean value (arbitrary units) (protein kinase Erk 1/2)	apoptosis of nerve cells, Mean value (%) of dead neurons (Hippocampal neurons; Aβ1-40 20 μM alone for 72 h, no inhibitor, DNAse positive control = 100) [%]	inhibition of the apoptosis induced by the β-amyloid peptide (in words) (Hippocampal neurons; TUNEL, neurons cultured in vitro)	inhibition of the activation of the protein kinase Erk 1/2 induced by tPA (in words) (protein kinase Erk 1/2; ELISA, hippocampal neurons)
CC12CC3CC(C)(C1)CC(N)(C3)C2 [Memantine, memantine]	4	0.75			
C[C@]12N[C@H](Cc3ccccc31)c1ccccc12 [Dizocilpine (MK-801), dizocilpine]		0.73			
Amyloid βProtein (1-40) trifluoroacetate salt [β-amyloid peptide (Aβ1-40)]			83.8		
NCC12CCC3CC(CC3C1)C2 (centres unmarked) [Compound of formula (I)]	2.8	0.61		efficiently inhibited	effectively inhibits
